According to ChEMBL document CHEMBL1201862, “PubChem BioAssay data set” (2004):
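Grown in 96-well plates, cells were treated for 48 hours with each compound at five concentrations. Insufficient inhibition: endpoint recorded as highest concentration tested. GI50 = concentration required for 50% inhibition of growth.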 Calls of active or inactive are those of the source. No stated cut-off is given here; in the data, active = GI50 up to about 1.1 µM and inactive = higher.

What was measured:
Test in all cases: DTP human tumour cell line panel, 48 h
NCI-H23 = tested on: NCI-H23
786-0 = tested on: 786-0
OVCAR-3 = tested on: OVCAR-3
SK-OV-3 = tested on: SK-OV-3
HOP-62 = tested on: HOP-62
IGROV-1 = tested on: IGROV-1
SW-620 = tested on: SW-620
SR = tested on: SR
OVCAR-8 = tested on: OVCAR-8
CAKI-1 = tested on: CAKI-1
HCC 2998 = tested on: HCC 2998
NCI-H226 = tested on: NCI-H226
UACC-62 = tested on: UACC-62
U-251 = tested on: U-251
MDA-MB-435 = tested on: MDA-MB-435
DU-145 = tested on: DU-145
TK-10 = tested on: TK-10
HCT-15 = tested on: HCT-15
MCF7 = tested on: MCF7
CCRF-CEM = tested on: CCRF-CEM
HT-29 = tested on: HT-29
PC-3 = tested on: PC-3
MOLT-4 = tested on: MOLT-4
SNB-75 = tested on: SNB-75
MDA-N = tested on: MDA-N
MDA-MB-231 = tested on: MDA-MB-231
NCI-H460 = tested on: NCI-H460
ACHN = tested on: ACHN
HL-60 = tested on: HL-60
Malme-3M = tested on: Malme-3M
NCI/ADR-RES = tested on: NCI/ADR-RES
SK-MEL-5 = tested on: SK-MEL-5
BT-549 = tested on: BT-549
EKVX = tested on: EKVX
SNB-19 = tested on: SNB-19
SN12C = tested on: SN12C
T47D = tested on: T47D
OVCAR-4 = tested on: OVCAR-4
RPMI-8226 = tested on: RPMI-8226
HOP-92 = tested on: HOP-92
SK-MEL-2 = tested on: SK-MEL-2
NCI-H522 = tested on: NCI-H522
SF-268 = tested on: SF-268
OVCAR-5 = tested on: OVCAR-5
UO-31 = tested on: UO-31
A549 = tested on: A549
RXF 393 = tested on: RXF 393
K562 = tested on: K562
SF-539 = tested on: SF-539
SK-MEL-28 = tested on: SK-MEL-28
KM12 = tested on: KM12
A498 = tested on: A498
Hs-578T = tested on: Hs-578T
HCT-116 = tested on: HCT-116
UACC-257 = tested on: UACC-257
M14 = tested on: M14
LOX IMVI = tested on: LOX IMVI
COLO 205 = tested on: COLO 205
SF-295 = tested on: SF-295

For `COC(=O)[C@@H]1C[C@]2(Br)c3ccccc3N(S(=O)(=O)c3ccccc3)[C@@H]2N1C(=O)OC`, the GI50 (NCI-H23) was 37.3 µM (inactive), the GI50 (786-0) was > 100 µM (inactive) and the GI50 (OVCAR-3) was > 100 µM (inactive). The GI50 (SK-OV-3) was > 100 µM (inactive), the GI50 (HOP-62) was > 100 µM (inactive) and the GI50 (IGROV-1) was > 100 µM (inactive). The GI50 (SW-620) was > 100 µM (inactive), the GI50 (SR) was > 100 µM (inactive) and the GI50 (OVCAR-8) was > 100 µM (inactive). The GI50 (CAKI-1) was 59.8 µM (inactive), the GI50 (HCC 2998) was 84.3 µM (inactive) and the GI50 (NCI-H226) was 85.7 µM (inactive). For the same molecule, the GI50 (UACC-62) was 62.1 µM (inactive), the GI50 (U-251) was > 100 µM (inactive) and the GI50 (MDA-MB-435) was > 100 µM (inactive). For the same molecule, the GI50 (DU-145) was 43.7 µM (inactive), the GI50 (TK-10) was > 100 µM (inactive) and the GI50 (HCT-15) was 67.3 µM. For the same molecule, the GI50 (MCF7) was > 100 µM (inactive), the GI50 (CCRF-CEM) was > 100 µM (inactive) and the GI50 (HT-29) was > 100 µM (inactive). For the same molecule, the GI50 (PC-3) was > 100 µM (inactive), the GI50 (MOLT-4) was > 100 µM (inactive) and the GI50 (SNB-75) was 66.8 µM (inactive). The GI50 (MDA-N) was > 100 µM (inactive), the GI50 (MDA-MB-231) was > 100 µM (inactive) and the GI50 (NCI-H460) was > 100 µM (inactive). The GI50 (ACHN) was > 100 µM (inactive), the GI50 (HL-60) was > 100 µM (inactive) and the GI50 (Malme-3M) was > 100 µM (inactive). The GI50 (NCI/ADR-RES) was > 100 µM (inactive), the GI50 (SK-MEL-5) was > 100 µM (inactive) and the GI50 (BT-549) was > 100 µM (inactive). The GI50 (EKVX) was 74.1 µM (inactive), the GI50 (SNB-19) was > 100 µM (inactive) and the GI50 (SN12C) was > 100 µM (inactive). The GI50 (T47D) was > 100 µM (inactive), the GI50 (OVCAR-4) was 73.8 µM (inactive) and the GI50 (RPMI-8226) was 93.1 µM (inactive). The GI50 (HOP-92) was > 100 µM (inactive), the GI50 (SK-MEL-2) was 74.5 µM (inactive) and the GI50 (NCI-H522) was > 100 µM (inactive). For the same molecule, the GI50 (SF-268) was > 100 µM (inactive), the GI50 (OVCAR-5) was 51.3 µM (inactive) and the GI50 (UO-31) was > 100 µM (inactive). For the same molecule, the GI50 (A549) was > 100 µM (inactive), the GI50 (RXF 393) was 23 µM (inactive) and the GI50 (K562) was > 100 µM (inactive). For the same molecule, the GI50 (SF-539) was > 100 µM (inactive), the GI50 (SK-MEL-28) was > 100 µM (inactive) and the GI50 (KM12) was > 100 µM (inactive). For the same molecule, the GI50 (A498) was 59.2 µM (inactive), the GI50 (Hs-578T) was 83.9 µM (inactive) and the GI50 (HCT-116) was > 100 µM (inactive). For the same molecule, the GI50 (UACC-257) was 0.0285 µM (active).
`CSC1=Nc2ccccc2-c2nc3ccccc3cc2C1` was tested, and the GI50 (NCI-H23) was > 100 µM (inactive), the GI50 (786-0) was > 100 µM (inactive) and the GI50 (OVCAR-3) was > 100 µM (inactive). The GI50 (SK-OV-3) was > 100 µM (inactive), the GI50 (M14) was > 100 µM (inactive) and the GI50 (HOP-62) was > 100 µM (inactive). The GI50 (IGROV-1) was > 100 µM (inactive), the GI50 (SR) was 29.9 µM (inactive) and the GI50 (OVCAR-8) was > 100 µM (inactive). For the same molecule, the GI50 (CAKI-1) was > 100 µM (inactive), the GI50 (HCC 2998) was > 100 µM (inactive) and the GI50 (NCI-H226) was > 100 µM (inactive). The GI50 (UACC-62) was > 100 µM (inactive), the GI50 (U-251) was > 100 µM (inactive) and the GI50 (MDA-MB-435) was > 100 µM (inactive). For the same molecule, the GI50 (DU-145) was > 100 µM (inactive), the GI50 (TK-10) was > 100 µM (inactive) and the GI50 (HCT-15) was greater than 100 µM. The GI50 (MCF7) was > 100 µM (inactive), the GI50 (CCRF-CEM) was > 100 µM (inactive) and the GI50 (HT-29) was > 100 µM (inactive). For the same molecule, the GI50 (PC-3) was > 100 µM (inactive), the GI50 (MOLT-4) was > 100 µM (inactive) and the GI50 (MDA-N) was > 100 µM (inactive). For the same molecule, the GI50 (MDA-MB-231) was > 100 µM (inactive), the GI50 (NCI-H460) was > 100 µM (inactive) and the GI50 (ACHN) was > 100 µM (inactive). The GI50 (HL-60) was 76 µM (inactive), the GI50 (Malme-3M) was > 100 µM (inactive) and the GI50 (NCI/ADR-RES) was > 100 µM (inactive). The GI50 (SK-MEL-5) was > 100 µM (inactive), the GI50 (BT-549) was > 100 µM (inactive) and the GI50 (EKVX) was > 100 µM (inactive). The GI50 (SNB-19) was > 100 µM (inactive), the GI50 (SN12C) was > 100 µM (inactive) and the GI50 (LOX IMVI) was > 100 µM (inactive). For the same molecule, the GI50 (T47D) was 25.9 µM (inactive), the GI50 (OVCAR-4) was > 100 µM (inactive) and the GI50 (COLO 205) was > 100 µM (inactive). For the same molecule, the GI50 (HOP-92) was > 100 µM (inactive), the GI50 (SK-MEL-2) was > 100 µM (inactive) and the GI50 (NCI-H522) was 69.2 µM (inactive). For the same molecule, the GI50 (SF-268) was > 100 µM (inactive), the GI50 (OVCAR-5) was > 100 µM (inactive) and the GI50 (UO-31) was > 100 µM (inactive). For the same molecule, the GI50 (SF-295) was > 100 µM (inactive), the GI50 (A549) was > 100 µM (inactive) and the GI50 (RXF 393) was > 100 µM (inactive). The GI50 (K562) was > 100 µM (inactive), the GI50 (SF-539) was > 100 µM (inactive) and the GI50 (SK-MEL-28) was > 100 µM (inactive). The GI50 (KM12) was 14.4 µM (inactive), the GI50 (A498) was > 100 µM (inactive) and the GI50 (Hs-578T) was > 100 µM (inactive). For the same molecule, the GI50 (HCT-116) was > 100 µM (inactive) and the GI50 (UACC-257) was > 100 µM (inactive).
In the case of `COc1cc2ccccc2c2cc([N+](=O)[O-])oc12`, the GI50 (NCI-H23) is reported as 1.2 µM (inactive), the GI50 (786-0) is reported as 0.374 µM (active) and the GI50 (OVCAR-3) is reported as 1.43 µM (inactive). For the same molecule, the GI50 (SK-OV-3) was 0.49 µM (active), the GI50 (M14) was 0.142 µM (active) and the GI50 (HOP-62) was 3.37 µM (inactive). The GI50 (IGROV-1) was 1.25 µM (inactive), the GI50 (SW-620) was 0.893 µM (active) and the GI50 (SR) was 0.0859 µM (active). For the same molecule, the GI50 (OVCAR-8) was 1.9 µM (inactive), the GI50 (CAKI-1) was 0.48 µM (active) and the GI50 (NCI-H226) was 1.11 µM (active). For the same molecule, the GI50 (UACC-62) was 0.809 µM (active), the GI50 (U-251) was 1.17 µM (inactive) and the GI50 (MDA-MB-435) was 0.214 µM (active). The GI50 (DU-145) was 0.265 µM (active), the GI50 (TK-10) was 0.173 µM (active) and the GI50 (HCT-15) was 1.03 µM. For the same molecule, the GI50 (MCF7) was 0.35 µM (active), the GI50 (CCRF-CEM) was 0.26 µM (active) and the GI50 (HT-29) was 0.406 µM (active). The GI50 (PC-3) was 3.04 µM (inactive), the GI50 (MOLT-4) was 0.0792 µM (active) and the GI50 (SNB-75) was 2.62 µM (inactive). For the same molecule, the GI50 (MDA-N) was 0.216 µM (active), the GI50 (MDA-MB-231) was 0.655 µM (active) and the GI50 (NCI-H460) was 0.183 µM (active). For the same molecule, the GI50 (ACHN) was 0.174 µM (active), the GI50 (HL-60) was 5.26 µM (inactive) and the GI50 (Malme-3M) was 0.126 µM (active). For the same molecule, the GI50 (NCI/ADR-RES) was 1.43 µM (inactive), the GI50 (SK-MEL-5) was 0.0948 µM (active) and the GI50 (BT-549) was 1.64 µM (inactive). For the same molecule, the GI50 (EKVX) was 4.19 µM (inactive), the GI50 (SNB-19) was 0.811 µM (active) and the GI50 (SN12C) was 0.927 µM (active). The GI50 (LOX IMVI) was 0.314 µM (active), the GI50 (T47D) was 5.36 µM (inactive) and the GI50 (OVCAR-4) was 3.48 µM (inactive). For the same molecule, the GI50 (RPMI-8226) was 0.619 µM (active), the GI50 (COLO 205) was 0.379 µM (active) and the GI50 (HOP-92) was 0.78 µM (active). The GI50 (SK-MEL-2) was 0.197 µM (active), the GI50 (NCI-H522) was 0.183 µM (active) and the GI50 (SF-268) was 0.537 µM (active). For the same molecule, the GI50 (OVCAR-5) was 3.39 µM (inactive), the GI50 (UO-31) was 0.618 µM (active) and the GI50 (SF-295) was 1.39 µM (inactive). The GI50 (A549) was 0.294 µM (active), the GI50 (RXF 393) was 0.207 µM (active) and the GI50 (K562) was 0.319 µM (active). For the same molecule, the GI50 (SF-539) was 0.91 µM (active), the GI50 (SK-MEL-28) was 0.261 µM (active) and the GI50 (KM12) was 1.43 µM (inactive). For the same molecule, the GI50 (A498) was 0.177 µM (active), the GI50 (Hs-578T) was 2.28 µM (inactive) and the GI50 (HCT-116) was 0.249 µM (active). The GI50 (UACC-257) was 0.179 µM (active).
